In patent US8835509B2, “Self emulsifying drug delivery system for a curcuminoid based composition” (Arbro Pharmaceuticals Ltd., priority 2010, dated 2014):
In brackets after ≈: the same amount, converted by molar mass. Where two headings read alike, the source gives them in different places.

Assays:
[1] = rats, oral administration of 400 mg of curcumins, cited from earlier work
[2] = Solubility test of curcumin in oils, surfactants, milk, BSA and casein; type: physicochemical; settings: thermodynamic from solid
Description: The solubility of curcumin in a number of oils such as citronella oil, castor oil, ethyl oleate, and palm rose oil, coconut oil, CAPRYOL™ 90 and a number of surfactants such as TWEEN® 80, CREMOPHOR® EL, PEG 200 and TRANSCUTOL® HP were determined in order to find out the appropriate oils and surfactants as compositions of SNEDDS. Solubility was also determined in milk, BSA and casein.
An excess amount of curcumin was added to 5 ml of oil or surfactant solutions. The resultant mixture was shaken reciprocally at 37° C. for 72 h, followed by centrifugation at 12000 rpm for 10 min. The supernatant was filtered through a membrane filter (0.45 μm) to remove the remaining insoluble curcumin. After the appropriate dilution with methanol, the drug concentration in the filtrate was quantified by HPLC.

[3] = rat intestine in vitro, cited from earlier work

solubility at 72 h ([2]; 37 °C, plasma or biological fluid, in Casein, read-out: Solubility of Curcumin in milk, BSA and Casein): 0.014 mg/mL (≈ 0.038 mM)
solubility at 72 h ([2]; 37 °C, plasma or biological fluid, in Milk, read-out: Solubility of Curcumin in milk, BSA and Casein): 23.8 mg/mL (≈ 64.5 mM)
solubility at 72 h ([2]; Almond oil, oil or lipid, in Almond, 37° C., 72 h, read-out: Solubility of Curcumin in oils, Sol): 1.25 mg/mL (≈ 3.39 mM)
solubility at 72 h ([2]; Castor oil, oil or lipid, in Castor, 37° C., 72 h, read-out: Solubility of Curcumin in oils, Sol): 4.42 mg/mL (≈ 12 mM)
solubility at 72 h ([2]; Citronella oil, oil or lipid, in Citronella, 37° C., 72 h, read-out: Solubility of Curcumin in oils, Sol): 13.2 mg/mL (≈ 35.8 mM)
solubility at 72 h ([2]; Lavender oil, oil or lipid, in Lavender, 37° C., 72 h, read-out: Solubility of Curcumin in oils, Sol): 3.45 mg/mL (≈ 9.35 mM)
solubility at 72 h ([2]; Palm Rose oil, oil or lipid, in Palm Rose, 37° C., 72 h, read-out: Solubility of Curcumin in oils, Sol): 6.03 mg/mL (≈ 16.4 mM)
solubility at 72 h ([2]; aqueous with cosolvent or surfactant or cyclodextrin, in TWEEN® 60 (100% conc), 37° C., 72 h, read-out: Solubility of Curcumin in surfactants, Sol): 0.034 mg/mL (≈ 0.0923 mM)
solubility at 72 h ([2]; aqueous with cosolvent or surfactant or cyclodextrin, in TWEEN® 80 (100% conc), 37° C., 72 h, read-out: Solubility of Curcumin in surfactants, Sol): 0.484 mg/mL (≈ 1.31 mM)
solubility at 72 h ([2]; bovine, 37 °C, plasma or biological fluid, in BSA, read-out: Solubility of Curcumin in milk, BSA and Casein): 0.024 mg/mL (≈ 0.0651 mM)
solubility at 72 h ([2]; coconut oil, oil or lipid, in Cocconut Oil, 37° C., 72 h, read-out: Solubility of Curcumin in oils, Sol): 1.68 mg/mL (≈ 4.57 mM)
solubility at 72 h ([2]; oil or lipid, in Arachis Oil, 37° C., 72 h, read-out: Solubility of Curcumin in oils, Sol): 0.16 mg/mL (≈ 0.434 mM)
solubility at 72 h ([2]; oil or lipid, in CAPRYOL™ 90, 37° C., 72 h, read-out: Solubility of Curcumin in oils, Sol): 7.58 mg/mL (≈ 20.6 mM)
solubility at 72 h ([2]; oil or lipid, in Emu oil, 37° C., 72 h, read-out: Solubility of Curcumin in oils, Sol): 1.58 mg/mL (≈ 4.3 mM)
solubility at 72 h ([2]; oil or lipid, in Ethyl Oleate, 37° C., 72 h, read-out: Solubility of Curcumin in oils, Sol): 0.589 mg/mL (≈ 1.6 mM)
solubility at 72 h ([2]; oil or lipid, in Glyc Mono ol, 37° C., 72 h, read-out: Solubility of Curcumin in oils, Sol): 0.154 mg/mL (≈ 0.418 mM)
solubility at 72 h ([2]; oil or lipid, in IPM, 37° C., 72 h, read-out: Solubility of Curcumin in oils, Sol): 1.13 mg/mL (≈ 3.06 mM)
solubility at 72 h ([2]; oil or lipid, in Labrafilm F 1944, 37° C., 72 h, read-out: Solubility of Curcumin in oils, Sol): 2.56 mg/mL (≈ 6.95 mM)
solubility at 72 h ([2]; oil or lipid, in Labrafilm F2125, 37° C., 72 h, read-out: Solubility of Curcumin in oils, Sol): 3.59 mg/mL (≈ 9.75 mM)
solubility at 72 h ([2]; oil or lipid, in Lauroglycol, 37° C., 72 h, read-out: Solubility of Curcumin in oils, Sol): 2.61 mg/mL (≈ 7.09 mM)
solubility at 72 h ([2]; oil or lipid, in Light Paraffin, 37° C., 72 h, read-out: Solubility of Curcumin in oils, Sol): 0.007 mg/mL (≈ 0.019 mM)
solubility at 72 h ([2]; oil or lipid, in Linseed Oil, 37° C., 72 h, read-out: Solubility of Curcumin in oils, Sol): 0.277 mg/mL (≈ 0.752 mM)
solubility at 72 h ([2]; olive oil, oil or lipid, in Oilve, 37° C., 72 h, read-out: Solubility of Curcumin in oils, Sol): 0.501 mg/mL (≈ 1.36 mM)
solubility at 72 h ([2]; organic solvent or mixture, in CREMOPHOR® EL (100% conc), 37° C., 72 h, read-out: Solubility of Curcumin in surfactants, Sol): 36.6 mg/mL (≈ 99.4 mM)
solubility at 72 h ([2]; organic solvent or mixture, in CREMOPHOR® RH (100% conc), 37° C., 72 h, read-out: Solubility of Curcumin in surfactants, Sol): 38.7 mg/mL (≈ 105 mM)
solubility at 72 h ([2]; organic solvent or mixture, in LABRASOL® (100% conc), 37° C., 72 h, read-out: Solubility of Curcumin in surfactants, Sol): 0.846 mg/mL (≈ 2.3 mM)
solubility at 72 h ([2]; organic solvent or mixture, in PEG 200 (100% conc), 37° C., 72 h, read-out: Solubility of Curcumin in surfactants, Sol): 1.04 mg/mL (≈ 2.84 mM)
solubility at 72 h ([2]; organic solvent or mixture, in PEG 400 (100% conc), 37° C., 72 h, read-out: Solubility of Curcumin in surfactants, Sol): 0.512 mg/mL (≈ 1.39 mM)
solubility at 72 h ([2]; organic solvent or mixture, in PEG 600 (100% conc), 37° C., 72 h, read-out: Solubility of Curcumin in surfactants, Sol): 0.123 mg/mL (≈ 0.334 mM)
solubility at 72 h ([2]; organic solvent or mixture, in TRANSCUTOL® HP (100% conc), 37° C., 72 h, read-out: Solubility of Curcumin in surfactants, Sol): 96.4 mg/mL (≈ 262 mM)
SMILES: COc1cc(/C=C/C(=O)/C=C(O)/C=C/c2ccc(O)c(OC)c2)ccc1O [Curcumin, curcumin]
curcumin in portal blood ([1]; 15 minute to 24 hour after administration): trace amount
curcumin in heart blood [1]: no curcumin was found
absorption of curcumin ([3]; present as micelles): 56%
absorption of curcumin ([3]; present in a free form): 47%
